ChEMBL document CHEMBL5226370, “Selective Inhibition of Organic Cation Transporter 1 by Benzoylpaeoniflorin Attenuates Hepatic Lipid Accumulation through AMPK Activation” (J Nat Prod, 2023)
Activity calls are given as the source filed them. No cut-off for these calls is given here.

Tests used:
HEK293 [1] = experiment: Cytotoxicity against HEK293 cells expressing OCT1 assessed as reduction in cell viability at 250 uM incubated for 12 hrs by resazurin dye based assay; assay type: toxicity; conditions: human, hek293, 12 h
[2] = biological target: T1, Solute carrier family 22 member 2 (Homo sapiens, UniProt O15244); experiment: Inhibition of OCT2(unknown origin)-mediated ASP+ uptake in HEK293 cells expressing OCT2 using ASP+ as substrate incubated for 5 mins; assay type: cell-based
T1 sequence (O15244 whole entry): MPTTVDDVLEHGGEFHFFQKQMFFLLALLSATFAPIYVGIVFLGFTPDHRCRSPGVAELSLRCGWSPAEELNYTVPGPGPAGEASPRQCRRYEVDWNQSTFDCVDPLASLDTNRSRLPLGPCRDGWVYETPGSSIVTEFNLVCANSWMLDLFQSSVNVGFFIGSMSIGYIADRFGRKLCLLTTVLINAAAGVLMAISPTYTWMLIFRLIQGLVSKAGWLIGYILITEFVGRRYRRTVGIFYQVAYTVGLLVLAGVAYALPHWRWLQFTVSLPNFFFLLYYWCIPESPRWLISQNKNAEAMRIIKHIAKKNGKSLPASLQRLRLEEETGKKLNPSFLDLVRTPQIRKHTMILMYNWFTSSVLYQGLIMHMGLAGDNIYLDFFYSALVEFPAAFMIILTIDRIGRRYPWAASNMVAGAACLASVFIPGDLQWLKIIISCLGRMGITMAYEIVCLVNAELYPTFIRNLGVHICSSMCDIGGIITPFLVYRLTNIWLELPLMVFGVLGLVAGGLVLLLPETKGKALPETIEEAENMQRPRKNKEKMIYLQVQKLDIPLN

HEK293 [3] = experiment: Cytotoxicity against HEK293 cells harboring empty vector assessed as reduction in cell viability at 250 uM incubated for 12 hrs by resazurin dye based assay; assay type: toxicity; conditions: human, hek293, 12 h
[4] = biological target: T2, Solute carrier family 22 member 1 (Homo sapiens, UniProt O15245); experiment: Inhibition of OCT1(unknown origin)-mediated ASP+ uptake in HEK293 cells expressing OCT1 using ASP+ as substrate incubated for 5 mins; assay type: cell-based
T2 sequence (O15245 whole entry): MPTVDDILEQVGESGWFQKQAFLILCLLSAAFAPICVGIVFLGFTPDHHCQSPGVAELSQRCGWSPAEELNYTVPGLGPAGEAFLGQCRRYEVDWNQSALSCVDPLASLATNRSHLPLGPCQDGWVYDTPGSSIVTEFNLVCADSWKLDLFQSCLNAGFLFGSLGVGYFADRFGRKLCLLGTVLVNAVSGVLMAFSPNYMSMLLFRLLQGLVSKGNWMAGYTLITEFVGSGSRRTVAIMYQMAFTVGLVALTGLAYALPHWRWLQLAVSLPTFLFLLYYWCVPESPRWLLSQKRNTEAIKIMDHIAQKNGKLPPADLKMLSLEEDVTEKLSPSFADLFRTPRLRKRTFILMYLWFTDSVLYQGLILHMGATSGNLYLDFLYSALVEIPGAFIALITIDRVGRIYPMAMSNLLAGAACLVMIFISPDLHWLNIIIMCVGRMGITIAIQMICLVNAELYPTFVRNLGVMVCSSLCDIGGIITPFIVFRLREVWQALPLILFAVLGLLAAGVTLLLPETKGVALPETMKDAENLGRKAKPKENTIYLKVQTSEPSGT

OCT1 (SLC22A1) = biological target: T3, OCT1 (SLC22A1) (Homo sapiens, UniProt O15245); experiment: Inhibition of OCT1(unknown origin)-mediated ASP+ uptake in HEK293 cells expressing OCT1 using ASP+ as substrate at 50 uM incubated for 5 mins by fluorescence based microplate reader analysis relative to control; assay type: cell-based; conditions: HEK293 cells expressing OCT1, probe ASP+
T3 sequence (O15245 whole entry): T2 sequence (O15245 whole entry)

HEK293 [5] = experiment: Cytotoxicity against HEK293 cells expressing OCT2 assessed as reduction in cell viability at 250 uM incubated for 12 hrs by resazurin dye based assay; assay type: toxicity; conditions: human, hek293, 12 h
HEK293 [6] = experiment: Selectivity index, ratio of IC50 for inhibition of OCT2(unknown origin)-mediated ASP+ uptake in HEK293 cells expressing OCT2 to IC50 for inhibition of OCT1(unknown origin)-mediated ASP+ uptake in HEK293 cells expressing OCT1; assay type: cell-based; conditions: Homo sapiens
[7] = Activation of AMPK signalling pathway in human L02 cells expressing OCT1 assessed as decrease in FASN mRNA expression at 2.5 to 10 uM incubated for 1 to 24 hrs by qRT-PCR analysis; assay type: cell-based; conditions: filed as activator, dose 2.5-10 µM, time 1-24 hrs
[8] = Activation of AMPK signalling pathway in human HepG2 cells expressing OCT1 assessed as increase in AMPK phosphorylation at 2.5 to 10 uM incubated for 1 to 24 hrs by Western blot analysis; assay type: cell-based; conditions: filed as activator, dose 2.5-10 µM, time 1-24 hrs
[9] = Activation of AMPK signalling pathway in human HepG2 cells expressing OCT1 assessed as decrease in FASN mRNA expression at 2.5 to 10 uM incubated for 1 to 24 hrs by qRT-PCR analysis; assay type: cell-based; conditions: filed as activator, dose 2.5-10 µM, time 1-24 hrs
[10] = Activation of AMPK signalling pathway in human L02 cells expressing OCT1 assessed as decrease in ACC mRNA expression at 2.5 to 10 uM incubated for 1 to 24 hrs by qRT-PCR analysis; assay type: cell-based; conditions: filed as activator, dose 2.5-10 µM, time 1-24 hrs
[11] = Activation of AMPK signalling pathway in human L02 cells expressing OCT1 assessed as increase in AMPK phosphorylation at 2.5 to 10 uM incubated for 1 to 24 hrs by Western blot analysis; assay type: cell-based; conditions: filed as activator, dose 2.5-10 µM, time 1-24 hrs
HepG2 [12] = experiment: Inhibition of FFA-induced lipid accumulation in human HepG2 cells expressing OCT1 at 10 uM incubated for 24 hrs by Oil Red O staining based microscopic analysis; assay type: functional, cell-based
L02 [13] = experiment: Inhibition of FFA-induced lipid accumulation in human L02 cells expressing OCT1 assessed as decrease in triglyceride level at 10 uM incubated for 24 hrs; assay type: functional, cell-based
HepG2 [14] = experiment: Inhibition of FFA-induced lipid accumulation in human HepG2 cells expressing OCT1 assessed as decrease in triglyceride level at 10 uM incubated for 24 hrs; assay type: functional, cell-based
[15] = Activation of AMPK signalling pathway in human HepG2 cells expressing OCT1 assessed as decrease in ACC mRNA expression at 2.5 to 10 uM incubated for 1 to 24 hrs by qRT-PCR analysis; assay type: cell-based; conditions: filed as activator, dose 2.5-10 µM, time 1-24 hrs
L02 [16] = experiment: Inhibition of FFA-induced lipid accumulation in human L02 cells expressing OCT1 at 10 uM incubated for 24 hrs by Oil Red O staining based microscopic analysis; assay type: functional, cell-based

Structure (SMILES) | Activity (HEK293 [1]) | IC50 [2] | Activity (HEK293 [3]) | IC50 [4] | inhibition at 5 min, 50 µM (OCT1 (SLC22A1)) | Activity (HEK293 [5]) | Ratio IC50 (HEK293 [6]) | Activity [7] | Activity [8] | Activity [9] | Activity [10] | Activity [11] | inhibition (HepG2 [12]) | inhibition (L02 [13]) | inhibition (HepG2 [14]) | Activity [15] | inhibition (L02 [16])
CC(C)=CCc1c(O)cc(O)c2c(=O)c(O[C@@H]3O[C@@H](C)[C@H](O)[C@@H](O)[C@H]3O[C@@H]3O[C@H](CO)[C@@H](O)[C@H](O)[C@H]3O)c(-c3ccc(O)cc3)oc12 | Non-Toxic | 56.5 µM | Non-Toxic | 11.2 µM | > 50% | Non-Toxic | – | – | – | – | – | – | – | – | – | – | –
COc1ccc(-c2oc3cc(OC)cc(OC)c3c(=O)c2OC)cc1 [TETRAMETHYLKAEMPFEROL] | Non-Toxic | 39.5 µM | Non-Toxic | 47 µM | > 50% | Non-Toxic | – | – | – | – | – | – | – | – | – | – | –
CNC(=C[N+](=O)[O-])NCCSCc1ccc(CN(C)C)o1 [RANITIDINE] | – | 1620 µM | – | 28 µM | – | – | 39.6 | – | – | – | – | – | – | – | – | – | –
NC12CC3CC(CC(C3)C1)C2 [AMANTADINE] | – | 45.9 µM | – | 39.6 µM | – | – | 1.16 | – | – | – | – | – | – | – | – | – | –
COc1cc(O)c2c(c1)oc(=O)c1c3cc(O)c(O)cc3oc21 [WEDELOLACTONE] | Non-Toxic | 17.3 µM | Non-Toxic | 38.4 µM | > 50% | Non-Toxic | – | – | – | – | – | – | – | – | – | – | –
O=c1cc(-c2ccc(O)cc2)oc2cc(O)cc(O)c12 [APIGENIN] | Non-Toxic | 30.9 µM | Non-Toxic | 38.9 µM | > 50% | Non-Toxic | – | – | – | – | – | – | – | – | – | – | –
C[C@@]12C[C@@]3(O)O[C@@H](O1)[C@]1(COC(=O)c4ccccc4)[C@H]3C[C@@]12O[C@@H]1O[C@H](COC(=O)c2ccccc2)[C@@H](O)[C@H](O)[C@H]1O | Non-Toxic | 4120 µM | Non-Toxic | 3.46 µM | > 50% | Non-Toxic | > 1000 | Active | Active | Active | Active | Active | Active | Active | Active | Active | Active
C[C@H]1O[C@@H](O[C@H]2CC[C@@]3(C)[C@@H](CC[C@]4(C)[C@@H]3C=CC3=C5CC(C)(C)CC[C@]5(CO)[C@@H](O)C[C@]34C)[C@]2(C)CO)[C@H](O)[C@@H](O[C@@H]2O[C@H](CO)[C@@H](O)[C@H](O)[C@H]2O)[C@H]1O | Non-Toxic | 69.5 µM | Non-Toxic | 35.2 µM | > 50% | Non-Toxic | – | – | – | – | – | – | – | – | – | – | –
O=c1cc(-c2ccc(O)c(O)c2)oc2cc(O)cc(O)c12 [LUTEOLIN] | Non-Toxic | 41 µM | Non-Toxic | 46.1 µM | > 50% | Non-Toxic | – | – | – | – | – | – | – | – | – | – | –
CC(C)=CCc1cc(-c2cc(=O)c3c(O)cc(O)c(CC=C(C)C)c3o2)cc(O)c1O | Non-Toxic | 33.1 µM | Non-Toxic | 40.2 µM | > 50% | Non-Toxic | – | – | – | – | – | – | – | – | – | – | –
C[C@@H]1CC[C@@]2(OC1)O[C@H]1C[C@H]3[C@@H]4CC=C5C[C@@H](O)C[C@@H](O[C@@H]6O[C@H](C)[C@H](O)[C@H](O[C@@H]7OC[C@@H](O)[C@H](O)[C@H]7O)[C@H]6O[C@@H]6O[C@@H](C)[C@H](O)[C@@H](O)[C@H]6O)[C@]5(C)[C@H]4CC[C@]3(C)[C@H]1[C@@H]2C | Non-Toxic | 19.1 µM | Non-Toxic | 41.3 µM | > 50% | Non-Toxic | – | – | – | – | – | – | – | – | – | – | –
C/C=C1\C2CC(=O)OC[C@@H](c3ccc(O)c(O)c3)OC[C@H]3O[C@@H](O[C@@H]1OC=C2C(=O)OC)[C@H](O)[C@@H](O)[C@@H]3O | Non-Toxic | 1270 µM | Non-Toxic | 47.3 µM | > 50% | Non-Toxic | – | – | – | – | – | – | – | – | – | – | –
